Results published in ChEMBL document CHEMBL1139242, “Peptide deformylase inhibitors of Mycobacterium tuberculosis: synthesis, structural investigations, and biological results” (Bioorg Med Chem Lett, 2008).
Converted amounts (≈) assume the structure as drawn.

What follows are molecules tested on Mycobacterium tuberculosis (assay: Antimicrobial activity against Mycobacterium bovis BCG after 4 days by alamar blue assay). Conditions: variant bovis BCG, 96 h.
Assay type: functional
Molecule `CCCC[C@H](CC(=O)O)C(=O)N1CCC[C@H]1c1nc2ccccc2[nH]1` has an MIC of 9 µg/mL (≈ 26.2 µM).
`CCCCC[C@H](CN(O)C=O)C(=O)N1CCC[C@H]1c1nc2ccccc2o1` gave an MIC of 0.6 µg/mL (≈ 1.61 µM).
`CCC[C@H](CN(O)C=O)C(=O)N1CCC[C@H]1c1nc2ccccc2o1` gave an MIC of 4.5 µg/mL (≈ 13 µM).
Work on `O=CN(O)C[C@@H](CC1CC1)C(=O)N1CCC[C@H]1c1nc2ccccc2[nH]1` yielded an MIC of 1.2 µg/mL (≈ 3.37 µM).
`CCCC[C@H](CN(O)C=O)C(=O)N1CCC[C@H]1c1nc2ccccc2[nH]1` gave an MIC of 0.6 µg/mL (≈ 1.67 µM).
In the case of `CCC[C@H](CN(O)C=O)C(=O)N1CCC[C@H]1c1nc2ccccc2[nH]1`, the MIC is reported as 9 µg/mL (≈ 26.1 µM).
`CCCC[C@H](CN(O)C=O)C(=O)N1CCC[C@H]1c1nc2ccccc2o1` gave an MIC of 0.6 µg/mL (≈ 1.67 µM).
With `O=CN(O)C[C@@H](Cc1ccccc1)C(=O)N1CCC[C@H]1c1nc2ccccc2o1` the MIC was 9 µg/mL (≈ 22.9 µM).
For `CCCCC[C@H](CN(O)C=O)C(=O)N1CCC[C@H]1c1nc2ccccc2[nH]1`, the MIC was 1.2 µg/mL (≈ 3.22 µM).
For `CCCC[C@H](C(=O)NO)C(=O)N1CCC[C@H]1c1nc2ccccc2[nH]1`, the MIC was 4.5 µg/mL (≈ 13.1 µM).
`O=CN(O)C[C@@H](Cc1ccccc1)C(=O)N1CCC[C@H]1c1nc2ccccc2[nH]1` showed an MIC of 9 µg/mL (≈ 22.9 µM).
In the case of `O=CN(O)C[C@@H](CC1CC1)C(=O)N1CCC[C@H]1c1nc2ccccc2o1`, the MIC is reported as 1.2 µg/mL (≈ 3.36 µM).
Work on `CCCC[C@H](C(=O)NO)C(=O)N1CCC[C@H]1c1nc2ccccc2o1` yielded an MIC of 4.5 µg/mL (≈ 13 µM).
For `CCCC[C@H](CC(=O)O)C(=O)N1CCC[C@H]1c1nc2ccccc2o1`, the MIC was 9 µg/mL (≈ 26.1 µM).
